Drawing on a melting point compilation (Tetko et al.; mined from patent text by program, amines drawn as free bases though some values may be those of a salt), this text covers melting point for 62 compounds.

The structures appear in SMILES notation.

Regarding `Cc1sc2c(Cl)c(Cl)c(O)cc2c1C`, the melting point was 143 to 144 °C.

As to `O=c1[nH]c2cc(Cl)ccc2c(=O)c(-c2ccco2)c1O`, the melting point is 233 to 234 °C.

Consider `COC(=O)c1ccc(Cl)c(-n2nn[nH]c2=O)c1Cl`, for which the melting point was 192 to 193 °C.

`COc1ccc(C=C2c3ccccc3C(=NO)c3ccccc32)cc1O` returned a melting point of 140 °C.

Take `Oc1c(CN2CCCC2)cc(Nc2ccc3ccccc3n2)cc1CN1CCCC1`: the melting point was 64 to 66 °C.

As for `NC(=O)N(O)CC#CCOc1cccc(Oc2ccccc2)c1`, the melting point lay within 105 to 107 °C.

Turning to `NS(=O)(=O)Oc1ccc2c(C3CCCCC3)csc2c1`, the melting point amounted to 128 °C.

`COc1ccc2c(c1)CCC1CCN(CO)C(=O)C(CC(C)N(C)C(C)C)=C21` (configuration not stated) had a melting point of 158 to 161 °C.

`COc1cc(C)c(C(=O)c2c(C)cncc2Br)c(OC)c1OC`: the melting point fell in the range of 88 to 93 °C.

`Cc1cc(C(C#N)=CN(C)C)ccn1` yielded a melting point of 126 °C.

`COc1ccc(N)c(CS(=O)(=O)c2ccccc2)c1` came in with a melting point of 110 to 111 °C.

As to `COC(=O)c1cccc(NC(=O)Oc2ccc([N+](=O)[O-])cc2)c1`, the melting point is 184 to 186 °C.

`Cc1onc(-c2cccc(C(F)(F)F)c2)c1CCC(=O)O` gave a melting point of 63 to 64 °C.

For the compound `COC(=O)NC(C)(C)c1ccc(C)cc1`, the melting point fell in the range of 42 to 43 °C.

`CC(=O)Nc1ccc(N(c2ccccc2)C2(c3ccc(N(C)C)cc3)OC(=O)c3ccccc32)cc1` (configuration not stated): the melting point lay within 182 to 184 °C.

Compound `CC(C)N(CCCCOc1ccc(-c2nnc(CSCCOc3ccccc3)o2)cc1)C(C)C` registered a melting point of 42 to 44 °C.

`COC(=O)c1cc(O)c(O)c([N+](=O)[O-])c1` yielded a melting point of 144 to 145 °C.

As for `COc1ccc(-c2c(C(=O)O)c(=O)n(C)c3ccc(Cl)cc23)cc1OC`, the melting point fell in the range of 230 to 232 °C.

Compound `C=CC1(NC(=O)OC)CC(C)(C)CC(C)(C)C1` displayed a melting point of 61 to 63 °C.

Compound `O=C1CC(c2cccc(-n3ccnc3)c2)=Nc2cc(O)c(C#Cc3ccc(F)cc3)cc2N1` returned a melting point of 247 °C.

In turn, `COC(=O)C1=C(C)NC(C)=C(C(=O)OCCN2CCN(C(c3ccc(Cl)cc3)c3ccc(Cl)cc3)CC2)C1c1cccc(Cl)c1Cl` (configuration not stated) registered a melting point of 104 to 107 °C.

Turning to `CON=C(c1cnco1)c1ccccc1COc1cc(C)ccc1C`, the melting point was 90 to 91 °C.

In turn, `CNC(=O)c1ccccc1Nc1nc(Nc2ccc3c(c2)CCCC(=O)N3C)ncc1Br` displayed a melting point of 238 to 240 °C.

Compound `N=C(N)c1cc2cc(F)c(F)cc2o1` gave a melting point of 178 °C.

Compound `COC(=O)Cc1ccc(O)c(Cl)c1` displayed a melting point of 35 to 36 °C.

Take `Cc1ccc(C(C=NO)=NO)cc1`: the melting point fell in the range of 170 to 176 °C.

`CC(=O)c1ccc(OCCCOc2cccc(NC(=O)c3nnn[nH]3)c2C#N)c(CCC(F)(F)F)c1O` returned a melting point of 206 to 208 °C.

The compound `CC(C(O)c1ccc(OC(=O)c2ccc(CN3CCOCC3)cc2)cc1)N1CCC(O)(c2ccccc2)CC1` (configuration not stated) had a melting point of 172 to 173 °C.

Regarding `CNS(=O)(=O)Cc1ccc(NC(=N)c2ccc3[nH]cc(CCN)c3c2)cc1`, the melting point lay in the range of 63 to 65 °C.

In the case of `CC(C)CCNCC(O)C(CC(C)C)NC(=O)C(Cc1c[nH]cn1)NC(=O)C(CC(=O)NCCc1ccccc1)Cc1cccc2ccccc12` (mixture of isomers), the melting point lay within 92 to 97 °C.

Take `CC(C)C(=O)N[C@H]1N=C(c2ccccc2)c2ccccc2N(C)C1=O`: the melting point was 87 to 107 °C.

In turn, `O=C(CCl)CC(=O)Nc1ccccc1` yielded a melting point of 142 to 143 °C.

For `O=C(Nc1cccc(S(=O)(=O)Nc2ccccc2)c1)NC1N=C(c2ccccc2F)c2ccccc2N(CC(=O)N2CC3CCC(CC3)C2)C1=O` (racemic), the melting point is 181 to 188 °C.

The compound `CN(C)C(=O)COC(=O)COc1ccc(C(=O)Nc2ccccc2Sc2ccccc2-c2nnn[nH]2)cc1` returned a melting point of 205 to 206 °C.

Consider `CO/N=C(\C(=O)O)c1ccccc1COc1cc(C)ccc1C`, for which the melting point fell in the range of 112 to 114 °C.

Compound `CCOC(=O)Cn1c2cccccc-2c(CC)c1=O` gave a melting point of 128 to 131 °C.

The compound `O=Cc1ccc(COC(=O)Nc2cccc3ccccc23)cc1` gave a melting point of 153 to 154 °C.

Consider `CSc1ncc(C(O)c2ccc(C)nc2)c(O)n1` (configuration not stated), for which the melting point turned out to be 140 °C.

Turning to `C=C(C)c1cc(Br)c(Oc2nc(C)nc(N3CCOCC3)n2)c(OC)c1`, the melting point lay in the range of 63 to 67 °C.

In turn, `CSc1c(S)c(SC)c(SC)c(SC)c1SC` displayed a melting point of 60 °C.

On to `CN(C)C1CCN(C(=O)C2CCC(c3[nH]nc4c3C(=O)c3c(NC(=O)NN5CCOCC5)cccc3-4)CC2)C1` (configuration not stated), for which the melting point lay in the range of 191 to 193 °C.

Compound `CC(C)(C)OC(=O)N(CCO)C1CCN(c2ccc3c(NC(=O)CC4CCCCC4)c(Cl)ccc3n2)C1` (configuration not stated) showed a melting point of 115 to 120 °C.

Take `COc1ccc2c(c1)CCc1c(C(F)F)nn(-c3ccc(S(N)(=O)=O)cc3)c1-2`: the melting point was in the range of 256 to 257 °C.

`COc1ccc(Br)c(O)c1O` registered a melting point of 122 to 124 °C.

The compound `CC(C)(C)C(C(N)=O)c1cccc(Nc2ncnc3[nH]cc(C(=O)c4ccccc4)c23)c1` (configuration not stated) came in with a melting point of 288 to 290 °C.

On to `CN(C)CC1(C2(O)CCCCC2)Cc2cc3c(cc21)NCC3` (configuration not stated), for which the melting point lay in the range of 159 to 161 °C.

Compound `COC(=O)c1ccc(OCC2CN(c3ccc([N+](=O)[O-])cc3)C(=O)O2)cc1` (configuration not stated) displayed a melting point of 200 to 201 °C.

As for `O=C(O)C1CCc2c(c3ccccc3n2C(=O)c2ccc(-c3ccccc3)cc2)C1` (configuration not stated), the melting point lay within 212 to 213 °C.

With `O=S1(=O)Cc2cc(Cl)c(Cl)cc2C(c2ccc(F)cc2)=NN1`, the melting point was in the range of 196 to 200 °C.

Consider `O=C(NCc1ccc(F)cc1)c1ccnc(N2CCN(CC3CC3)C2=O)c1`, for which the melting point lay within 150 to 151 °C.

Consider `CCOC(=O)Cc1ccc2oc(-c3ccc(Cl)cc3)nc2c1`, for which the melting point was 81 to 82 °C.

As for `NC(=O)Cc1c(F)cccc1C(F)(F)F`, the melting point lay within 172 to 174 °C.

The compound `CN(C)CCc1cccc(OCCN2C(=O)c3ccccc3C2=O)c1` registered a melting point of 84 to 85 °C.

Take `O=C1C2CCN(CC2)C1Cc1ccc(-c2ccc(F)cc2)cc1` (configuration not stated): the melting point lay within 122 to 123 °C.

`CS(=O)(=O)c1ccc(-c2cc(CBr)nn2CC2CCCCC2)cc1` showed a melting point of 141 to 143 °C.

For the compound `CCOC(=O)c1c(C=O)c2ccc3oc4ccccc4c3c2n1C`, the melting point is 190 to 192 °C.

`O=C(CN1CCN(C(=O)OCc2ccc(C(F)(F)F)cc2)CC1)N1CCC2(CC1)Cn1cc([N+](=O)[O-])nc1O2` displayed a melting point of 139 to 141 °C.

For `COC(=O)CCCc1cc2nc(C(F)(F)F)ccc2n1S(=O)(=O)c1ccc(C(C)C)cc1`, the melting point is 78 °C.

Turning to `Cc1nc2c(N)nc3ccccc3c2n1CCOCCNC(=O)Nc1ccccc1`, the melting point is 193 to 195 °C.

Turning to `COc1cc(C=CC(COc2ccccc2)=NO)ccc1O`, the melting point is 155 to 158 °C.

`O=C(NCCO)/C(=C/c1ccc(Cl)cc1)NC(=O)c1ccc(OCCC2CC2)cc1` gave a melting point of 143 to 145 °C.

`Clc1cc2c(cc1Cn1c(Sc3ccccc3)nc(Br)c1Br)OCO2`: the melting point stood at 165 °C.

Usually melting point stands for the temperature, or range, at which the solid turns liquid.
